Experimental data from ChEMBL document CHEMBL3351627, “Design and synthesis of 3-isoxazolidone derivatives as new Chlamydia trachomatis inhibitors” (Bioorg Med Chem Lett, 2014).
The source made the active and inactive calls. The rule behind the calls is not given here.

How the values were obtained:
Chlamydia trachomatis [1] = assay: Bactericidal activity against Chlamydia trachomatis serovar L2 infected in human HeLa cells assessed as growth inhibition compound treated at 5 to 200 uM for 1 hr prior infection measured 24 hrs post infection by microscopy; type: functional, organism-based
[2] = Cytotoxicity against mouse fibroblasts at 5 to 200 uM after 24 to 48 hrs by trypan blue exclusion assay; type: cell-based; details: fibroblast
Chlamydia trachomatis [3] = assay: Bactericidal activity against Chlamydia trachomatis serovar L2 infected in human HeLa cells assessed as growth inhibition compound treated for 1 hr prior infection measured 24 hrs post infection by microscopy; type: functional, organism-based
HeLa = assay: Cytotoxicity against human HeLa cells at 5 to 200 uM after 24 to 48 hrs by trypan blue exclusion assay; type: cell-based
[4] = Iron chelating activity of the compound at pH 7.4 by UV-visible spectrophotometric titration; type: physicochemical
Chlamydia trachomatis [5] = assay: Bactericidal activity against Chlamydia trachomatis serovar L2 infected in human HeLa cells assessed as reduction in inclusion forming unit compound treated at 5 to 25 uM for 1 hr prior infection measured 24 hrs post infection by immunofluorescence assay in presence of 200 uM iron citrate; type: functional, organism-based
Chlamydia trachomatis [6] = assay: Bactericidal activity against Chlamydia trachomatis serovar L2 infected in human HeLa cells assessed as growth inhibition compound treated at 50 to 200 uM for 1 hr prior infection measured 24 hrs post infection by microscopy; type: functional, organism-based
Chlamydia trachomatis [7] = assay: Bactericidal activity against Chlamydia trachomatis serovar L2 infected in human HeLa cells assessed as growth inhibition compound treated at 200 uM for 1 hr prior infection measured 24 hrs post infection by microscopy; type: functional, organism-based
Chlamydia trachomatis [8] = assay: Bacteriostatic activity against Chlamydia trachomatis serovar L2 infected in human HeLa cells assessed as growth inhibition compound treated at >100 uM for 1 hr prior infection measured 24 hrs post infection by microscopy; type: functional, organism-based
Chlamydia trachomatis [9] = assay: Bacteriostatic activity against Chlamydia trachomatis serovar L2 infected in human HeLa cells assessed as growth inhibition compound treated at >100 uM for 1 hr prior infection measured 24 hrs post infection by microscopy in presence of 200 uM iron citrate; type: functional, organism-based
Chlamydia trachomatis [10] = assay: Bactericidal activity against Chlamydia trachomatis serovar L2 infected in human HeLa cells assessed as growth inhibition compound treated at 100 to 200 uM for 1 hr prior infection measured 24 hrs post infection by microscopy in presence of 200 uM iron citrate; type: functional, organism-based

SMILES	growth inhibition (GI) (Chlamydia trachomatis [1])	Activity [2]	growth inhibition (GI) (Chlamydia trachomatis [3])	Activity (HeLa)	Activity [4]	Activity (Chlamydia trachomatis [5])	growth inhibition (GI) (Chlamydia trachomatis [6])	growth inhibition (GI) (Chlamydia trachomatis [7])	growth inhibition (GI) (Chlamydia trachomatis [8])	growth inhibition (GI) (Chlamydia trachomatis [9])	growth inhibition (GI) (Chlamydia trachomatis [10])
COc1cccc(C(=O)N[C@@H]2CON(CCc3c[nH]cn3)C2=O)c1OC	inactive	Non-toxic	Dose-dependent effect	Non-toxic	–	–	–	–	–	–	–
O=C(NCCN1OC[C@@H](NC(=O)c2ccc3ccccc3n2)C1=O)c1ccc2ccccc2n1	inactive	Non-toxic	Dose-dependent effect	Non-toxic	Not Active	Active	–	–	–	–	–
O=C(N[C@@H]1CON(CCc2c[nH]cn2)C1=O)c1cccc(O)c1O	Active	Non-toxic	Dose-dependent effect	Non-toxic	–	–	–	–	–	–	–
O=C(N[C@@H]1CON(CCCCOC(=O)c2cccc(O)c2O)C1=O)c1cccc(O)c1O	–	Non-toxic	Dose-dependent effect	Non-toxic	Active	–	Active	–	–	–	–
O=C(N[C@@H]1CON(CCOC(=O)c2cccc(O)c2O)C1=O)c1cccc(O)c1O	–	Non-toxic	Dose-dependent effect	Non-toxic	Active	–	–	Active	–	–	–
O=C(NCCN1OC[C@@H](NC(=O)c2cccc(O)c2O)C1=O)c1cccc(O)c1O	–	Non-toxic	Dose-dependent effect	Non-toxic	Active	Active	Active	–	–	–	–
O=C(NCCOC1=NOC[C@H]1NC(=O)c1cccc(O)c1O)c1cccc(O)c1O	–	Non-toxic	–	Non-toxic	Active	Active	–	Active	–	–	–
CC(=O)N(O)CCCCCNC(=O)CCC(=O)N(O)CCCCCNC(=O)CCC(=O)N(O)CCCCCN	–	–	–	–	–	–	–	–	Active	inactive	–
N[C@@H]1CONC1=O	–	–	–	–	–	Active	–	–	–	–	–
O=C(NCCN1OC[C@@H](NC(=O)c2ccc3cccc(O)c3n2)C1=O)c1ccc2cccc(O)c2n1	Active	Non-toxic	Dose-dependent effect	Non-toxic	Not Active	Active	–	–	–	–	Active
